Some test systems named below: OVCAR-5 ovarian; SN12C renal; NCI/ADR-RES ovarian; SK-MEL-28 melanoma; OVCAR-3 ovarian; SNB-19 CNS; DU-145 prostate; RPMI-8226 leukemia; SF-539 CNS; HCT-15 colon.
What all share (assay): NCI-60 cell line screen, 48 h

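The compound was tested at five concentrations on cells cultured in 96-well plates, with a 48-hour exposure period. GI50 marks 50% less growth. The concentration for full growth arrest is given as TGI.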

`CNC(C)[C@H]1CCC2C3CCC4C[C@@H](N(C)C(=O)c5ccccc5)CC[C@]4(C)C3CC[C@@]21C` (some centres undefined): the GI50 was 2.4 µM in the assay on OVCAR-5 ovarian; 1.82 µM in the assay with SN12C renal; 2.57 µM in the assay with NCI/ADR-RES ovarian; 1.36 µM in the assay with SK-MEL-28 melanoma; 1.22 µM in the assay with OVCAR-3 ovarian; 2.88 µM with SNB-19 CNS. The GI50 in the assay with DU-145 prostate was 3.46 µM; with RPMI-8226 leukemia it was 0.426 µM; with SF-539 CNS, 0.739 µM; with HCT-15 colon, 0.407 µM. Also, the TGI in the assay on OVCAR-5 ovarian amounted to 14.8 µM; with SN12C renal it was 8.34 µM; in the assay with NCI/ADR-RES ovarian it was 15.5 µM; with SK-MEL-28 melanoma, 2.9 µM; with OVCAR-3 ovarian, 3.99 µM; with SNB-19 CNS it was 8.36 µM. Further, the TGI worked out at 16.6 µM in the assay on DU-145 prostate, 3.3 µM in the assay with RPMI-8226 leukemia, 2.01 µM in the assay with SF-539 CNS and 2.19 µM in the assay with HCT-15 colon.
In the case of `Oc1c(Cl)cc(CN(Cc2cc(Cl)c(O)c(Cl)c2)C2CCCCC2)cc1Cl`, the TGI with OVCAR-5 ovarian, in the assay with SN12C renal, in the assay with NCI/ADR-RES ovarian, in the assay on SK-MEL-28 melanoma, in the assay with OVCAR-3 ovarian and in the assay with SNB-19 CNS was more than 100 µM throughout. In addition, the TGI with DU-145 prostate, with RPMI-8226 leukemia, with SF-539 CNS and in the assay with HCT-15 colon was more than 100 µM throughout.
On to `C[n+]1cc2cc3c(cc2c2ccccc21)OCO3`, for which the GI50 is 16.5 µM in the assay with OVCAR-5 ovarian; 2.31 µM with SN12C renal; more than 100 µM in the assay on NCI/ADR-RES ovarian; 3.49 µM in the assay on SK-MEL-28 melanoma; 3.13 µM in the assay with OVCAR-3 ovarian; 1.64 µM in the assay on SNB-19 CNS. Moreover, the GI50 in the assay on DU-145 prostate was 4.49 µM; with RPMI-8226 leukemia it was 3.39 µM; with SF-539 CNS it was 4.83 µM; with HCT-15 colon, 70.2 µM. Further, the TGI with OVCAR-5 ovarian is more than 100 µM; in the assay with SN12C renal it was 11.1 µM; in the assay with NCI/ADR-RES ovarian, more than 100 µM; with SK-MEL-28 melanoma, 14.3 µM; with OVCAR-3 ovarian, 19.4 µM; in the assay with DU-145 prostate it was 25.9 µM. The TGI is 36.4 µM in the assay on RPMI-8226 leukemia, 23.8 µM with SF-539 CNS and more than 100 µM with HCT-15 colon.
In the case of `COc1cc2oc(-c3cccc(C(=O)Nc4ccc(C)cc4)c3)cc(=O)c2c(OC)c1OC`, the GI50 in the assay with OVCAR-5 ovarian is 2.17 µM; in the assay on SN12C renal it was 1.91 µM; in the assay with NCI/ADR-RES ovarian it was 1.46 µM; in the assay on SK-MEL-28 melanoma, 1.67 µM; with OVCAR-3 ovarian, 5.39 µM; in the assay on SNB-19 CNS, 6.49 µM. Besides, the GI50 in the assay with DU-145 prostate is 3.21 µM; in the assay on RPMI-8226 leukemia, 0.374 µM; in the assay on SF-539 CNS, 2.58 µM; in the assay with HCT-15 colon it was 1.96 µM. Further, the TGI in the assay on OVCAR-5 ovarian was more than 100 µM; in the assay on SN12C renal it was more than 100 µM; with NCI/ADR-RES ovarian it was more than 100 µM; with SK-MEL-28 melanoma, 4.11 µM; in the assay on OVCAR-3 ovarian, more than 100 µM; in the assay with SNB-19 CNS it was more than 100 µM. Moreover, the TGI in the assay with DU-145 prostate was more than 100 µM; in the assay on RPMI-8226 leukemia, 3.54 µM; with SF-539 CNS it was 10.5 µM; in the assay on HCT-15 colon, more than 100 µM.
In the case of `CC(=O)N1N=C(c2ccc(Nc3nc(Nc4ccc(F)cc4)nc(Nc4ccc(Cl)cc4)n3)cc2)CC1c1ccc(N(C)C)cc1` (centres undefined), the GI50 is 14 µM in the assay with OVCAR-5 ovarian; 6.1 µM in the assay on SN12C renal; 1.65 µM in the assay on NCI/ADR-RES ovarian; 11.7 µM in the assay with SK-MEL-28 melanoma; 9.51 µM in the assay with OVCAR-3 ovarian; 6.26 µM in the assay on SNB-19 CNS. The GI50 was 10.2 µM with DU-145 prostate, 4.15 µM in the assay with RPMI-8226 leukemia, 15.8 µM with SF-539 CNS and 2.64 µM with HCT-15 colon. Also, the TGI was 43.6 µM in the assay with OVCAR-5 ovarian; 33.3 µM in the assay on SN12C renal; 15.7 µM in the assay with NCI/ADR-RES ovarian; 40.1 µM in the assay on SK-MEL-28 melanoma; 31.7 µM in the assay on OVCAR-3 ovarian; more than 56.2 µM in the assay with SNB-19 CNS. The TGI in the assay on DU-145 prostate is 39 µM; in the assay with RPMI-8226 leukemia, more than 100 µM; in the assay on SF-539 CNS, more than 63.9 µM; with HCT-15 colon, 30.5 µM.
For the molecule `CCOC(=O)Nc1ccc(C(=O)/C=C/c2ccccc2)cc1`, the GI50 in the assay on OVCAR-5 ovarian is 28.9 µM; in the assay with SN12C renal, 24.4 µM; in the assay with NCI/ADR-RES ovarian it was 24.2 µM; in the assay on SK-MEL-28 melanoma, 59 µM; with OVCAR-3 ovarian, 18.9 µM; in the assay on SNB-19 CNS, 26.4 µM. For the same molecule, the GI50 in the assay with DU-145 prostate is 22.8 µM; with RPMI-8226 leukemia, 3.76 µM; in the assay on SF-539 CNS it was 20.2 µM; with HCT-15 colon it was 27.2 µM. The TGI is 90.5 µM in the assay on OVCAR-5 ovarian; more than 100 µM in the assay on SN12C renal; 65.8 µM in the assay on NCI/ADR-RES ovarian; more than 100 µM with SK-MEL-28 melanoma; 75.3 µM in the assay on OVCAR-3 ovarian; more than 100 µM in the assay with SNB-19 CNS. Moreover, the TGI in the assay with DU-145 prostate was 85.1 µM; with RPMI-8226 leukemia, 22.5 µM; with SF-539 CNS, 46.3 µM; in the assay on HCT-15 colon, more than 100 µM.
Regarding `O=C(c1ccccc1)c1ccc(O)c2ncccc12`, the GI50 is 4.87 µM in the assay with OVCAR-5 ovarian; 2.46 µM in the assay with SN12C renal; 0.428 µM in the assay on NCI/ADR-RES ovarian; 14.6 µM in the assay with SK-MEL-28 melanoma; 2.1 µM in the assay on OVCAR-3 ovarian; 6.54 µM with SNB-19 CNS. Further, the GI50 is 5.72 µM in the assay on DU-145 prostate, 4.25 µM in the assay on RPMI-8226 leukemia, 4.66 µM with SF-539 CNS and 1.66 µM with HCT-15 colon. Further, the TGI was 22.3 µM with OVCAR-5 ovarian; 14.8 µM in the assay on SN12C renal; 6.03 µM in the assay with NCI/ADR-RES ovarian; more than 100 µM in the assay on SK-MEL-28 melanoma; 6.99 µM in the assay on OVCAR-3 ovarian; more than 100 µM in the assay on SNB-19 CNS. For the same molecule, the TGI in the assay on DU-145 prostate came to 27.6 µM; with RPMI-8226 leukemia, 39.1 µM; in the assay on SF-539 CNS it was 21.3 µM; with HCT-15 colon it was 25.9 µM.

These data come from PubChem BioAssay (NCI).
